Experimental data reported in US11678682B2, “Phosphor composition having selected surface coatings” (IMMUNOLIGHT, LLC, priority 2013, dated 2023).
Read-outs that look alike come from different tables or passages of the source.

Tests used:
[1] = tested on: cells; conditions: cells kept in the dark compared to those exposed to light; cited from earlier work
[2] = tested on: B16 cancer cells; assay: Clonogenic cell kill (surviving colonies) with x-ray stimulated phosphor mixtures with and without psoralen (AMT); assay type: cell-based
Source text: Accordingly, combinations of more than two “visible” phosphors can be used in this invention. Discussed below are x-ray settings and mass ratios for clonogenic cell kill experiments. F1 refers to the insertion of an aluminum filter into the x-ray beam to act as a filter.
Psoralen is known to be activated by UV light in the range from 300 to 400 nm. Thus, a measure of cell kill would normally be assumed to be an indirect measure of the internal generation of UV light.
FIGS. 18A and 18B is a plotted cell kill comparison (shown here as the number of surviving colonies) between B16 cancer cells treated with and without psoralen (i.e., AMT) with different phosphor mixtures, but otherwise being x-ray stimulated and containing the multiple phosphor combinations noted above. On these drawings, LDLE=low xRT dose, low energy; HDHE=high xRT dose, high energy.

[3] = tested on: cisplatin-resistant cells; conditions: photolyzed complex; cited from earlier work
[4] = tested on: human bladder cancer cells; conditions: cited from earlier work

NCCN.[Cl][Pt]([Cl])([I])[I] [[PtCl2I2(en)]]
cytotoxicity, dark versus light [1]: no difference in cytotoxicity

O=c1ccc2cc3ccoc3cc2o1 [psoralen]
cell kill (number of surviving colonies), with versus without psoralen (FIGS. 18A and 18B) ([2]; B16 cells, x-ray stimulated RYG/FYG phosphor mixtures): improved cell kill
clonogenic colony survival, with versus without psoralen (FIG. 19C) ([2]; flamingo, yellow, green FYG phosphor combination): pronounced cell kill
cell kill, with versus without psoralen (FIGS. 19A and 19B) ([2]; higher kVp x-ray conditions): does not show an increased kill

Cis,trans,cis-[Pt(N3)2(OH)2(NH3)2]
growth inhibition [3]: inhibits the growth
growth inhibition ([4]; cells treated with the complex and kept in the dark): very little growth inhibition
growth inhibition ([4]; photolyzed complex): inhibits the growth
